Source: DBAASP
Converted amounts (≈) assume the structure as drawn. “And” between values parts separate entries of the source, which are not always exact repeats. Identical values can stand only once. Blank lines part the entries; values can stand above or below the molecule they belong to.

Assays:
Experiment in all cases: ≥ marks a high value that may be exact or a test limit, other limits are often not marked, values filed in µg/mL are converted to µM
[1] = tested on: Escherichia coli ATCC 2592
[2] = tested on: Candida albicans ATCC 10231
[3] = tested on: Pseudomonas aeruginosa ATCC 10145
[4] = tested on: Cryptococcus neoformans ATCC 32045
[5] = tested on: Staphylococcus aureus ATCC 33591
[6] = tested on: Pseudomonas aeruginosa ATCC 27853
[7] = tested on: Acinetobacter baumannii ATCC 19606
[8] = tested on: Klebsiella pneumoniae ATCC 700603
[9] = tested on: Cryptococcus neoformans ATCC 208821
[10] = tested on: Candida albicans ATCC 90028
[11] = tested on: Staphylococcus aureus ATCC 43300
[12] = tested on: Escherichia coli ATCC 25922
[13] = tested on: Candida albicans CGMCC 2.2086
[14] = tested on: Candida parapsilosis CGMCC 2.3989
[15] = tested on: Candida tropicalis CGMCC 2.1975
[16] = tested on: Candida albicans
[17] = tested on: Staphylococcus aureus NCTC 10788
[18] = tested on: Candida albicans NCYC 1467
[19] = tested on: Staphylococcus aureus NCTC 12493
[20] = tested on: Klebsiella pneumoniae ATCC 43816
[21] = tested on: Escherichia coli NCTC 10418
[22] = tested on: Enterococcus faecalis NCTC 12697
[23] = tested on: Micrococcus luteus ATCC 49732
[24] = tested on: Escherichia coli UB1005
[25] = tested on: Escherichia coli K99
[26] = tested on: Staphylococcus epidermidis ATCC 12228
[27] = tested on: Escherichia coli K88
[28] = tested on: Salmonella enterica subsp. enterica serovar Pullorum ATCC 7913
[29] = tested on: Salmonella enterica subsp. enterica serovar Typhimurium ATCC 14028
[30] = tested on: Salmonella enterica subsp. enterica serovar Typhimurium C77-31
[31] = tested on: Escherichia coli 078
[32] = tested on: Staphylococcus aureus ATCC 25923

Structure (SMILES): NC(=O)C[C@H](N)C(=O)N[C@@H](Cc1cnc[nH]1)C(=O)N[C@@H](Cc1cnc[nH]1)C(=O)N[C@@H](CCCN=C(N)N)C(=O)N[C@@H](CCCN=C(N)N)C(=O)N[C@@H](Cc1cnc[nH]1)C(=O)N[C@@H](Cc1cnc[nH]1)C(=O)N[C@@H](CCCN=C(N)N)C(=O)N[C@@H](CS)C(=O)N[C@@H](CCCN=C(N)N)C(=O)O [NHHRRHHRCR]
- MIC [6]: > 22.7 µM
- MIC [7]: > 22.7 µM
- MIC [8]: > 22.7 µM
- MIC [9]: 22.7 µM (≈ 32 µg/mL)
- MIC [10]: 22.7 µM (≈ 32 µg/mL)
- MIC [11]: > 22.7 µM
- MIC [12]: > 22.7 µM

Structure (SMILES): NCCCC[C@H](NC(=O)[C@H](Cc1ccccc1)NC(=O)[C@H](CCCCN)NC(=O)[C@H](CCCCN)NC(=O)[C@H](Cc1ccccc1)NC(=O)[C@H](CCCCN)NC(=O)[C@H](CCCCN)NC(=O)[C@H](Cc1ccccc1)NC(=O)[C@H](CCCCN)NC(=O)[C@H](CCCCN)NC(=O)[C@H](Cc1ccccc1)NC(=O)[C@H](CCCCN)NC(=O)[C@H](CCCCN)NC(=O)[C@H](Cc1ccccc1)NC(=O)[C@H](CCCCN)NC(=O)[C@H](CCCCN)NC(=O)[C@H](Cc1ccccc1)NC(=O)[C@H](CCCCN)NC(=O)[C@H](CCCCN)NC(=O)[C@H](Cc1ccccc1)NC(=O)[C@H](CCCCN)NC(=O)[C@H](CCCCN)NC(=O)[C@H](Cc1ccccc1)NC(=O)[C@H](CCCCN)NC(=O)[C@H](CCCCN)NC(=O)[C@H](Cc1ccccc1)NC(=O)[C@@H](N)CCCCN)C(=O)O [KFKKFKKFKKFKKFKKFKKFKKFKKFK]
- MIC [1]: 6.2 µM (≈ 22.6 µg/mL)
- MIC [2]: 96.9 µM (≈ 354 µg/mL)
- MIC [3]: ≥ 34.2 µM
- MIC [4]: 24.1 µM (≈ 88 µg/mL)
- MIC [5]: ≥ 48.4 µM

Structure (SMILES): CC(C)C[C@H](NC(=O)[C@H](C)NC(=O)CNC(=O)[C@H](CCCN=C(N)N)NC(=O)[C@H](CCCN=C(N)N)NC(=O)[C@H](CCCN=C(N)N)NC(=O)[C@H](CCC(N)=O)NC(=O)[C@H](CCCN=C(N)N)NC(=O)[C@H](CCCN=C(N)N)NC(=O)[C@H](CCCCN)NC(=O)[C@H](CCCCN)NC(=O)[C@H](CCCN=C(N)N)NC(=O)CN)C(=O)N[C@@H](Cc1c[nH]c2ccccc12)C(=O)N[C@@H](CCCCN)C(=O)N[C@@H](CO)C(=O)N[C@@H](CC(C)C)C(=O)N[C@@H](CC(C)C)C(=O)N[C@@H](CCCCN)C(=O)N[C@@H](CC(N)=O)C(=O)N[C@H](C(=O)NCC(=O)N[C@@H](CCCCN)C(=O)N[C@@H](C)C(N)=O)C(C)C [GRKKRRQRRRGALWKSLLKNVGKA]
- MIC [17]: 8 µM (≈ 22.9 µg/mL)
- MIC [18]: 4 µM (≈ 11.4 µg/mL)
- MIC [6]: 8 µM (≈ 22.9 µg/mL)
- MIC [19]: 16 µM (≈ 45.8 µg/mL)
- MIC [20]: ≥ 32 µM
- MIC [21]: 4 µM (≈ 11.4 µg/mL)
- MIC [22]: ≥ 32 µM

Structure (SMILES): CC[C@H](C)[C@H](NC(=O)[C@H](C)NC(=O)[C@H](CO)NC(=O)[C@@H](NC(=O)[C@@H](NC(=O)[C@H](CCCCN)NC(=O)[C@@H]1CCCN1C(=O)[C@@H](NC(=O)[C@H](CC(C)C)NC(=O)[C@H](CO)NC(=O)[C@H](CC(C)C)NC(=O)[C@@H](N)Cc1ccccc1)[C@@H](C)CC)[C@@H](C)CC)[C@@H](C)CC)C(=O)N[C@@H](CO)C(=O)N[C@@H](C)C(=O)N[C@@H](CC(C)C)C(=O)N[C@H](C(=O)N[C@@H](CC(N)=O)C(=O)N[C@@H](Cc1cnc[nH]1)C(=O)N[C@@H](Cc1ccccc1)C(N)=O)[C@@H](C)CC [FLSLIPKIISAISALINHF]
- MIC [17]: 2 µM (≈ 4.19 µg/mL)
- MIC [18]: ≥ 32 µM
- MIC [6]: > 512 µM
- MIC [19]: ≥ 128 µM
- MIC [20]: ≥ 512 µM
- MIC [21]: ≥ 512 µM
- MIC [22]: ≥ 32 µM

Structure (SMILES): CC[C@H](C)[C@H](NC(=O)[C@H](CCCN=C(N)N)NC(=O)[C@H](C)NC(=O)[C@H](C)N)C(=O)N[C@H](C(=O)N[C@@H](CC(C)C)C(=O)N[C@@H](CCCN=C(N)N)C(=O)N[C@@H](CCCN=C(N)N)C(=O)N[C@@H](CCCN=C(N)N)C(=O)N[C@@H](Cc1ccccc1)C(=O)N[C@@H](CCCN=C(N)N)C(N)=O)[C@@H](C)CC [AARIILRRRFR]
- MIC [24]: 16 µM (≈ 22.8 µg/mL)
- MIC [25]: 8 µM (≈ 11.4 µg/mL)
- MIC [26]: 16 µM (≈ 22.8 µg/mL)
- MIC [13]: ≥ 128 µM
- MIC [27]: 16 µM (≈ 22.8 µg/mL)
- MIC [14]: ≥ 64 µM
- MIC [6]: > 128 µM
- MIC [15]: ≥ 64 µM
- MIC [28]: 16 µM (≈ 22.8 µg/mL)
- MIC [29]: 32 µM (≈ 45.7 µg/mL)
- MIC [30]: 8 µM (≈ 11.4 µg/mL)
- MIC [31]: 16 µM (≈ 22.8 µg/mL)
- MIC [11]: 16 µM (≈ 22.8 µg/mL)
- MIC [32]: 32 µM (≈ 45.7 µg/mL)

More lines, now with the values ahead:

- MIC [1]: 9.46 µM (≈ 22.6 µg/mL)
- MIC [2]: 44.4 µM (≈ 106 µg/mL)
- MIC [3]: 3.35 µM (≈ 8 µg/mL)
- MIC [4]: 4.73 µM (≈ 11.3 µg/mL)
- MIC [5]: ≥ 105 µM
Structure (SMILES): C[C@H](NC(=O)[C@H](Cc1ccccc1)NC(=O)[C@H](CCCCN)NC(=O)[C@H](CCCCN)NC(=O)[C@H](C)NC(=O)[C@H](Cc1ccccc1)NC(=O)[C@H](CCCCN)NC(=O)[C@H](CCCCN)NC(=O)[C@H](C)NC(=O)[C@H](Cc1ccccc1)NC(=O)[C@H](CCCCN)NC(=O)[C@H](CCCCN)NC(=O)[C@H](C)NC(=O)[C@H](Cc1ccccc1)NC(=O)[C@H](CCCCN)NC(=O)[C@H](CCCCN)NC(=O)[C@H](C)NC(=O)[C@H](Cc1ccccc1)NC(=O)[C@@H](N)CCCCN)C(=O)N[C@@H](CCCCN)C(=O)O [KFAKKFAKKFAKKFAKKFAK]

- MIC [13]: 4 µM (≈ 8.78 µg/mL)
- MIC [14]: 8 µM (≈ 17.6 µg/mL)
- MIC [15]: 2 µM (≈ 4.39 µg/mL)
- MIC [16]: 5.66 µM and 4 µM
Structure (SMILES): CC[C@H](C)[C@H](NC(=O)CNC(=O)[C@H](CCCCN)NC(=O)[C@H](Cc1c[nH]c2ccccc12)NC(=O)[C@H](CC(C)C)NC(=O)[C@H](CC(C)C)NC(=O)[C@H](Cc1c[nH]c2ccccc12)NC(=O)[C@H](CCCCN)NC(=O)CNC(=O)[C@@H](NC(=O)[C@@H](N)CCCCN)[C@@H](C)CC)C(=O)N[C@@H](CCCCN)C(=O)N[C@@H](CCCCN)C(=O)N[C@H](C(=O)NCC(=O)N[C@@H](CCCCN)C(=O)N[C@@H](Cc1c[nH]c2ccccc12)C(=O)N[C@@H](CC(C)C)C(N)=O)[C@@H](C)CC [KIGKWLLWKGIKKIGKWL]

- MIC [23]: 1.3 µM (≈ 2.53 µg/mL)
Structure (SMILES): CC[C@H](C)[C@H](NC(=O)[C@H](CO)NC(=O)[C@@H]1CCCN1C(=O)[C@H](CC(C)C)NC(=O)[C@H](CC(C)C)NC(=O)[C@H](CO)NC(=O)[C@H](CC(C)C)NC(=O)[C@@H](N)Cc1ccccc1)C(=O)N[C@H](C(=O)N[C@@H](CO)C(=O)NCC(=O)N[C@@H](C)C(=O)N[C@H](C(=O)N[C@@H](CO)C(=O)N[C@@H](CC(C)C)C(=O)N[C@@H](C)C(=O)N[C@@H](CCCCN)C(=O)N[C@@H](CCCCN)C(=O)N[C@@H](CC(C)C)C(N)=O)C(C)C)C(C)C [FLSLLPSIVSGAVSLAKKL]

- MIC [17]: 16 µM (≈ 42.5 µg/mL)
- MIC [18]: ≥ 64 µM
- MIC [6]: 16 µM (≈ 42.5 µg/mL)
- MIC [19]: ≥ 64 µM
- MIC [20]: ≥ 128 µM
- MIC [21]: 8 µM (≈ 21.2 µg/mL)
- MIC [22]: 16 µM (≈ 42.5 µg/mL)
Structure (SMILES): CC(C)C[C@H](NC(=O)[C@H](CCC(N)=O)NC(=O)[C@H](CCC(N)=O)NC(=O)[C@H](C)NC(=O)CNC(=O)[C@H](C)NC(=O)[C@H](CCCCN)NC(=O)CNC(=O)[C@@H](NC(=O)[C@H](CCC(N)=O)NC(=O)[C@H](CCCCN)NC(=O)[C@H](CCCN=C(N)N)NC(=O)[C@H](CC(C)C)NC(=O)[C@H](Cc1ccc(O)cc1)NC(=O)[C@H](CCCCN)NC(=O)[C@H](C)NC(=O)CNC(=O)[C@H](C)NC(=O)[C@H](CCCCN)NC(=O)[C@H](Cc1ccccc1)NC(=O)[C@H](CC(C)C)NC(=O)[C@H](CO)NC(=O)[C@H](CO)NC(=O)[C@H](Cc1ccccc1)NC(=O)CN)C(C)C)C(N)=O [GFSSLFKAGAKYLRKQVGKAGAQQL]
